# According to US11021481B2, “Substituted isoindolin-1-ones and 2,3-dihydro-1h-pyrrolo[3,4-c]pyridin-1-ones as HPK1 antagonists” (Nimbus Saturn, Inc., priority 2019, dated 2021):
# pIC50: −log10 of the molar value. Counter-ions that a name gives are not always drawn.
# Target: HPK1 (Homo sapiens (Human), UniProt Q92918)
# Assay: HPK1 biochemical enzyme assay (microfluidic mobility shift assay)
# Details: 1.5 nM HPK1, ATP 1 mM final, 30 min preincubation, 60 min at RT, Caliper EZ Reader; read-out: HPK1 1000UMATP caliper IC50
# Procedure, shortened: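 Ten-point compound titrations (top 3 μM final) preincubated 30 min with HPK1 and substrate, then reaction started with 1 mM ATP and 1 μM substrate, 5 mM MgCl2. After 60 min at RT, reaction terminated and product measured by microfluidic mobility shift.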
# Sequence of HPK1 (Q92918 whole entry): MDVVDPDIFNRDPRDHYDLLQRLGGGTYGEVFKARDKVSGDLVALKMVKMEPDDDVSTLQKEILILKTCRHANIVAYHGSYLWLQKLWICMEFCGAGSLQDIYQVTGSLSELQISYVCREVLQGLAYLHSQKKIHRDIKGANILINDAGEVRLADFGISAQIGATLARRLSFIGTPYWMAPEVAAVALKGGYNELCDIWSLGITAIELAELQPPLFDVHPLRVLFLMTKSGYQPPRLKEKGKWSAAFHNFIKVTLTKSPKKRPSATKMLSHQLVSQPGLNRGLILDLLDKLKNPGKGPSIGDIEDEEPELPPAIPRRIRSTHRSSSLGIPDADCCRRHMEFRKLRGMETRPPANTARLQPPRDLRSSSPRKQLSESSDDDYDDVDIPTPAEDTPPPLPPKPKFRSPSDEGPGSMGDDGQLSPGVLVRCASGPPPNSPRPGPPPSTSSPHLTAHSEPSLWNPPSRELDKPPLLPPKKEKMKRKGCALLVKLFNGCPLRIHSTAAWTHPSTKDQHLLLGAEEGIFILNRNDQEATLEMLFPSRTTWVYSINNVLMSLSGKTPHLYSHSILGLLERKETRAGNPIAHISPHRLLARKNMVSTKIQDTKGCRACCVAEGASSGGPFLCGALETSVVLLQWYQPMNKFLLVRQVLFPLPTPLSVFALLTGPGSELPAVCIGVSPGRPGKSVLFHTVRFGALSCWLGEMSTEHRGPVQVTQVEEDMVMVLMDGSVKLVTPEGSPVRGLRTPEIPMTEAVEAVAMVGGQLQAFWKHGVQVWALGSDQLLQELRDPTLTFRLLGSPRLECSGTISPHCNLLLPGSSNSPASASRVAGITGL
row,pIC50,Compound
1,> 7.00,"CNC(C)(C)[C@@H]1CN(c2ccc(Nc3ccc(-c4cnc5cc(F)ccn45)c4c3C(=O)NC4)nc2)CCO1 (single isomer, unassigned) [I-675]"
2,> 7.00,"COCCN(C)c1ccc(Nc2ccc(-c3cnc4cc(F)ccn34)c3c2C(=O)NC3)nc1 [I-235, 4-(7-fluoroimidazo [1,2-a]pyridin-3-yl)-7-[[5-[2-methoxyethyl (methyl)amino]-2-pyridyl]amino] isoindolin-1-one]"
3,6.00 to 7.00,"CN1CCN(c2ccc(Nc3cnc(-c4cnn5c4CCC5)c4c3C(=O)NC4)nc2)CC1 [I-254, 4-(5,6-dihydro-4H-pyrrolo[1,2-b]pyrazol-3-yl)-7-((5-(4-methylpiperazin-1-yl)pyridin-2-yl)amino)-2,3-dihydro-1H-pyrrolo[3,4-c]pyridin-1-one]"
4,> 7.00,"CC(C)N1CCN(c2ccc(Nc3cnc(-c4ccnc5c4ccn5C)c4c3C(=O)NC4)nc2)CC1 [I-319, 7-((5-(4-isopropylpiperazin-1-yl)pyridin-2-yl)amino)-4-(1-methyl-1H-pyrrolo[2,3-b]pyridin-4-yl)-2,3-dihydro-1H-pyrrolo[3,4-c]pyridin-1-one]"
5,6.00 to 7.00,"COCCNc1ccn2c(-c3ccc(Nc4ccc(N5CCOCC5)cn4)c4c3CNC4=O)cnc2c1 [I-206, 4-[7-(2-methoxyethyl-amino)imidazo [1,2-a]pyridin-3-yl]-7-[(5-morpholino-2-pyridyl)amino] isoindolin-1-one]"
6,> 7.00,"O=C1NCc2c(-c3cnc4cc(F)ccn34)ccc(Nc3ccc([C@@H]4CCOC4)c(CNCC(F)F)n3)c21 (single isomer, unassigned) [I-740]"
7,> 7.00,"COc1cc(Nc2ccc(-c3cnc4cc(F)ccn34)c3c2C(=O)NC3)ncc1N1CCC(O)CC1 [I-372, 4-(7-fluoroimidazo [1,2-a]pyridin-3-yl)-7-((5-(4-hydroxypipendin-1-yl)-4-methoxypyridin-2-yl)amino)isoin-dolin-1-one]"
8,> 7.00,"O=C1NCc2c(-c3cnc4cnccn34)ccc(Nc3ccc(N4CCC(O)CC4)cn3)c21 [I-133, 7-[[5-(4-hydroxy-1-piperidyl)-2-pyridyl]amino]-4-imidazo[1,2-a]pyrazin-3-yl-isoindolin-1-one]"
9,> 7.00,"Cc1ccn2c(-c3ccc(Nc4ccc(N5CCO[C@@H](CO)C5)cn4)c4c3CNC4=O)cnc2c1F [I-460, 4-(8-fluoro-7-methyl-imidazo[1,2-a]pyridin-3-yl)-7-[[5-[(2R)-2-(hydroxymeth-yl)morpholin-4-yl]-2-pyridyl]amino] isoindolin-1-one]"
10,> 7.00,"C[C@@H]1CC[C@](C)(O)CN1c1ccc(Nc2ccc(-c3cnn4c3CCCC4)c3c2C(=O)NC3)nc1 (stereo in doubt) [I-597, 7-((5-((2S,5S)-5-hydroxy-2,5-dimethyl-piperidin-1-yl)pyridin-2-yl)amino)-4-(4,5,6,7-tetrahydropyra-zolo[1,5-a]pyridin-3-yl)isoindolin-1-one]"
11,> 7.00,"C[C@@H](O)[C@@H]1CN(c2ccc(Nc3ccc(-c4cnc5cc(F)ccn45)c4c3C(=O)NC4)nc2)CCO1 [I-635, 4-(7-fluoroimidazo[1,2-a]pyridin-3-yl)-7-((5-((S)-2-((R)-1-hydroxyethyl)morpholino)pyridin-2-yl)amino)isoindolin-1-one]"
12,> 7.00,"O=C1NCc2c(-c3cnc4cc(F)ccn34)ccc(Nc3ccc(N4CCCC(N5CCOCC5)C4)cn3)c21 (centres unmarked) [I-476, Formic acid salt 4-(7-fluoroimidazo [1,2-a]pyridin-3-yl)-7-[[5-(3-morpholino-1-piperidyl)-2-pyridyl]amino] isoindolin-1-one]"
13,> 7.00,"Cc1csc2c(-c3ncc(Nc4ccc(N5CCC(O)CC5)cn4)c4c3CNC4=O)ccnc12 [I-373, 7-((5-(4-hydroxypiperidin-1-yl)pyridin-2-yl)amino)-4-(3-methylthieno [3,2-b]pyridin-7-yl)-2,3-dihydro-1H-pyrrolo[3,4-c]pyridin-1-one]"
14,6.00 to 7.00,"CN1CCN(c2ccc(Nc3ccc(-c4ccn5ccnc5c4)c4c3C(=O)NC4)nc2)CC1 [I-35, 4-imidazol[1,2-a]pyridin-7-yl-7-[[5-(4-methylpiperazin-1-yl)-2-pyridyl]amino] isoindolin-1-one]"
15,< 6.00,"Cn1ccc2c(-c3ccc(-n4ccc(N5CCC(O)CC5)n4)c4c3CNC4=O)ccnc21 [I-308, 7-(3-(4-hydroxypiper-idin-1-yl)-1H-pyrazol-1-yl)-4-(1-methyl-1H-pyrrolo[2,3-b)pyridin-4-yl)isoindolin-1-one]"
16,> 7.00,"CO[C@@]1(CN(C)C)CCCN(c2ccc(Nc3ccc(-c4cnc5cc(F)ccn45)c4c3C(=O)NC4)nc2)C1 [I-611, (R)-7-((5-(3-((dimethylamino)-methyl)-3-methoxy-piperidin-1-yl)pyridin-2-yl)amino)-4-(7-fluoroimidazo [1,2-a]pyridin-3-yl)isoindolin-1-one]"

row,pIC50,Compound
1,> 7.00,"O=C1NCc2c(-c3cnc4cc(F)ccn34)ccc(Nc3ccc([C@@H]4CCOC4)c(CN4CC[C@H](O)C4)n3)c21 [I-779, 4-(7-fluoroimidazo[1,2-a]pyridin-3-yl)-7-((6-(((S)-3-hydroxypyrrolidin-1-yl)methyl)-5-((S)-tetrahydrofuran-3-yl)pyridin-2-yl)amino)isoindolin-1-one]"
2,> 7.00,"O=C1NCc2c(-c3cnc4cc(F)ccn34)ccc(Nc3ccc(C4(O)CCOCC4)cn3)c21 [I-371, 4-(7-fluoroimidazo [1,2-a]pyridin-3-yl)-7-((5-(4-hydroxtetra-hydro-2H-pyran-4-yl)pyridin-2-yl)amino)isoin-dolin-1-one]"
3,> 7.00,"Cn1ccc2c(-c3ncc(Nc4cccc(N5CCNCC5)n4)c4c3CNC4=O)ccnc21 [I-232, 4-(1-methylpyrrolo [2,3-b]pyridin-4-yl)-7-[(6-piperazin-1-yl-2-pyridyl)amino]-2,3-dihydropyrrolo [3,4-c]pyridin-1-one]"
4,> 7.00,"CN1CCO[C@]2(CCCN(c3ccc(Nc4ccc(-c5cnc6cc(F)ccn56)c5c4C(=O)NC5)nc3)C2)C1 [I-506a, (R)-4-(7-fluoroimidazo [1,2-a]pyridin-3-yl)-7-((5-(4-methyl-1-oxa-4,8-diazaspiro[5.5]undecan-8-yl)pyridin-2-yl)amino)isoin-dolin-1-one]"
5,> 7.00,"CN1CCO[C@@]2(CCCN(c3ccc(Nc4ccc(-c5cnc6cc(F)ccn56)c5c4C(=O)NC5)nc3)C2)C1 [I-506, (S)-4-(7-fluoroimidazo [1,2-a]pyridin-3-yl)-7-((5-(4-methyl-1-oxa-4,8-diazaspiro[5.5]undecan-8-yl)pyridin-2-yl)amino)isoin-dolin-1-one]"
6,> 7.00,"CO[C@@H]1CCN(Cc2nc(Nc3ccc(-c4cnc5cc(F)ccn45)c4c3C(=O)NC4)ccc2[C@H]2CCOC2)C1 [I-780, 4-(7-fluoroimidazo [1,2-a]pyridin-3-yl)-7((6-(((R)-3-methoxypyrrol-idin-1-yl)methyl)-5-((R)-tetraliydrofiiran-3-yl)pyridin-2-yl)amino)isoin-dolin-1-one]"
7,6.00 to 7.00,"CN1CCN(c2ccc(Nc3cnc(-c4cnc5n4CCC5)c4c3C(=O)NC4)nc2)CC1 [I-268, 4-(6,7-dihydro-5H-pyrrolo[1,2-a]imidazol-3-yl)-7-((5-(4-methylpiperazin-1-yl)pyridin-2-yl)amino)-2.3-dihydro-1H-pyrrolo[3,4-c]pyridin-1-one]"
8,> 7.00,"COCC1CN(c2ccc(Nc3ccc(-c4cnc5nc(C)ccn45)c4c3C(=O)NC4)nc2)CCO1 (stereo in doubt) [I-628, (R)-7-((5-(2-(methoxymeth-yl)morpho-lino)pyridin-2-yl)amino)-4-(7-methylimidazol',2-a]pyriinidin-3-yl)isoindolin-1-one]"
9,> 7.00,"CN(C)Cc1nc(Nc2ccc(-c3ccnc4c3ccn4C)c3c2C(=O)NC3)ccc1[C@@H]1CCOC1 [I-545, (S)-7-((6-((dimethylamino)-methyl)-5-(tetrahydrofuran-3-yl)pyridin-2-yl)amino)-4-(1-methyl-1H-pyrrolo[2,3-b]pyridin-4-yl)isoindolin-1-one]"
10,> 7.00,"CNCc1nc(Nc2cnc(-c3ccnc4c3ccn4C)c3c2C(=O)NC3)ccc1[C@H]1CCOC1 (single isomer, unassigned) [I-814]"
11,> 7.00,"CNC1CCN(c2ccc(Nc3ccc(-c4cnc5cc(C)ccn45)c4c3C(=O)NC4)nc2)CC1 [I-71, 7-[[5-[4-(methylamino)-1-piperidyl]-2-pyridyl]amino]-4-(7-methylimidazo [1,2-a]pyridin-3-yl)isoindolin-1-one]"
12,> 7.00,"CN1CCN(c2ccc(Nc3ccc(-c4ccnc5[nH]ccc45)c4c3C(=O)NC4)nc2)CC1 [I-31, 7-[[5-(4-methylpiperazin-1-yl)-2-pyridyl]amino]-4-(1H-pyrrolo[2,3-b]pyridin-4-yl)-isoindolin-1-one]"
13,6.00 to 7.00,"O=C1NCc2c(-c3cnc4n3CCCC4)ccc(Nc3ccc(N4CCC(O)CC4)cn3)c21 [I-296, 7-((5-(4-hydroxy-piperidin-1-yl)pyridin-2-yl)amino)-4-(5,6,7,8-tetrahydro-imidazo[1,2-a]pyridin-3-yl)isoindolin-1-one]"
14,> 7.00,"CN(C)Cc1nc(Nc2ccc(-c3cnc4cc(F)ccn34)c3c2C(=O)NC3)ccc1N1CC[C@@H](F)[C@H](O)C1 [I-700, 7-((6-((dimethylamino)-methyl)-5-((3R,4R]-4-fluoro-3-hydroxypiperidin-1-yl)pyridin-2-yl)amino)-4-(7-fluoroimidazo [1,2-a]pyridin-3-yl)isoindolin-1-one]"
15,> 7.00,"O=C1NCc2c(-c3cnc4cnccn34)ccc(Nc3ccc(N4CCCC(O)CC4)cn3)c21 (centres unmarked) [I-301, 7-((5-(4-hydroxyaze-pan-1-yl)pyridin-2-yl)amino)-4-(imidazo[1,2-a]pyrazin-3-yl)isoindolin-1-one]"

row,Compound,pIC50
1,"(R)-7-((6- ((dimethylamino)- methyl)-5- (tetrahydrofuran- 3-yl)pyridin- 2-yl)amino)-4- (8-methylimidazo [1,2-a]pyridin- 3-yl)isoindolin- 1-one [I-696]",> 7.00
